Assay results published in patent publication US20260138969A1 (Korea Research Institute of Chemical Technology, priority 2023, published 2026).

System: Reserpine-induced fibromyalgia rat model
Assay: Reserpine-induced fibromyalgia rat model: pain (von Frey test)
Type: in vivo
Experimental: Reserpine-induced fibromyalgia model generation and drug administration were carried out on 6-week-old male SD rats divided into 6 groups as shown in Table 15 below: control group (G1), reserpine+delivery (G2), reserpine+gabapentin 50 mg/kg (G3), reserpine+Example 2 3 mg/kg (G4), 10 mg/kg (G5), and 30 mg/kg (G6). To create a rat fibromyalgia model, reserpine (Sigma-aldrich, 1 mg/kg) dissolved in 0.5% acetic acid was administered subcutaneously once for 3 days from 3 days before the start of the experiment. Beginning on Day 1, the once-daily (QD) delivery body, gabapentin, and embodiment 2 were administered intraperitoneally (IP) or orally (PO) 2 hours before the experiment was performed.
The right hind foot tactile response test (von Frey test) was performed 5 times (before the fibromyalgia model, and on the 1st, 2nd, 4th and 6th days after the model was generated). Before all behavioral tests, rats were accustomed to the environment for 30 minutes, and all experimenters performing behavioral tests were made blind to drug administration information. Before model generation, baseline measurements were performed by performing the von Frey test on all rats. The rat was placed on a wired mesh and placed in a transparent plastic box (20×20×14 cm), and the foot withdrawal threshold was measured by applying a von Frey filament (ascending weight: 0.4, 0.6, 1.4, 2, 4, 6, 8, and 15 g, North Coast) to the middle of the right hind foot to assess foot allodynia.

Cc1cc(F)c(C(=O)Nc2cccc(-n3nnc4c3CCC4)n2)cc1-n1cnc(C2CC2)c1 [Example 2, 5-(4-cyclopropyl-1H-imidazole-1-yl)-N-(6-(5,6-dihydrocyclopenta[d][1,2,3]triazole-1 (4H)-yl)pyridine-2-yl)-2-fluoro-4-methylbenzamide]
pain improvement efficacy (von Frey test) (30 mg/kg PO QD): significant efficacy | sensitivity (foot withdrawal threshold, von Frey test) (gabapentin 50 mg/kg IP QD, Example 2 3, 10, 30 mg/kg PO QD, days 1, 2, 4, 6): gradually improved over time
